Structures are written as SMILES.

This assay relates to HBV rcDNA in HepDE19 cells. Kind of assay: HepDE19 assay with bDNA quantitation of HBV rcDNA. The class given is cell-based, hepatitis B virus. The note with it: Hepatitis B virus, HepDE19, HepDE19 assay, inhibition of rcDNA formation, bDNA quantitation; read-out: DE-19bDNA EC50.
Usually EC50 stands for the concentration needed to bring the measured effect to its halfway point. In the case of `CN([C@@H]1COCc2[nH]c(=O)c3cc(F)c(F)cc3c21)S(=O)(=O)c1cccc(Cl)c1` [Compound 144, (S)-3-Chloro-N-(8,9-difluoro-6-oxo-1,4,5,6-tetrahydro-2H-pyrano[3,4-c]isoquinolin-1-yl)-N-methylbenzenesulfonamide], the EC50 worked out at 12000 nM.

`CN([C@@H]1COCc2[nH]c(=O)c3cc(F)c(F)cc3c21)S(=O)(=O)c1cccc(C#N)c1` [Compound 145, (S)-3-Cyano-N-(8,9-difluoro-6-oxo-1,4,5,6-tetrahydro-2H-pyrano[3,4-c]isoquinolin-1-yl)-N-methylbenzenesulfonamide]: the EC50 turned out to be 5500 nM.

Consider `CN([C@@H]1COCc2[nH]c(=O)c3cc(F)c(F)cc3c21)S(=O)(=O)c1ccc(F)c(C#N)c1` [Compound 146, (S)-3-Cyano-N-(8,9-difluoro-6-oxo-1,4,5,6-tetrahydro-2H-pyrano[3,4-c]isoquinolin-1-yl)-4-fluoro-N-methylbenzenesulfonamide], for which the EC50 was determined as 23000 nM.

Consider `CCc1ccc(C(=O)N(C)[C@@H]2COCc3[nH]c(=O)c4cc(F)c(F)cc4c32)cc1F` [Compound 147, (S)-N-(8,9-Difluoro-6-oxo-1,4,5,6-tetrahydro-2H-pyrano[3,4-c]isoquinolin-1-yl)-4-ethyl-3-fluoro-N-methylbenzamide], for which the EC50 is 3300 nM.

Regarding `O=C(N[C@@H]1COCc2[nH]c(=O)c3cc(F)c(F)cc3c21)c1cc2ccccn2c1` [Compound 148, (S)-N-(8,9-Difluoro-6-oxo-1,4,5,6-tetrahydro-2H-pyrano[3,4-c]isoquinolin-1-yl)indolizine-2-carboxamide], the EC50 came to 760 nM.

Regarding `CN(C(=O)c1ccc(OC(F)F)c(F)c1)[C@@H]1COCc2[nH]c(=O)c3cc(F)c(F)cc3c21` [Compound 153, (S)-N-(8,9-Difluoro-6-oxo-1,4,5,6-tetrahydro-2H-pyrano[3,4-c]isoquinolin-1-yl)-4-(difluoromethoxy)-3-fluoro-N-methylbenzamide], the EC50 turned out to be 150 nM.

Consider `CN(C(=O)c1ccc(C(C)(C)O)cc1)[C@@H]1COCc2[nH]c(=O)c3cc(F)c(F)cc3c21` [Compound 154, (S)-N-(8,9-Difluoro-6-oxo-1,4,5,6-tetrahydro-2H-pyrano[3,4-c]isoquinolin-1-yl)-4-(2-hydroxypropan-2-yl)-N-methylbenzamide], for which the EC50 was found to be 1050 nM.

As to `CN(C(=O)c1cccc(C(C)(C)O)c1)[C@@H]1COCc2[nH]c(=O)c3cc(F)c(F)cc3c21` [Compound 155, (S)-N-(8,9-Difluoro-6-oxo-1,4,5,6-tetrahydro-2H-pyrano[3,4-c]isoquinolin-1-yl)-3-(2-hydroxypropan-2-yl)-N-methylbenzamide], the concentration giving a half-maximal response (EC50) is 4490 nM.

Turning to `O=C(N[C@@H]1COCc2[nH]c(=O)c3cc(F)c(F)cc3c21)c1cc2cc(F)c(F)cc2[nH]1` [Compound 156, (S)-N-(8,9-Difluoro-6-oxo-1,4,5,6-tetrahydro-2H-pyrano[3,4-c]isoquinolin-1-yl)-5,6-difluoro-1H-indole-2-carboxamide], the EC50 worked out at 490 nM.

On to `O=C(N[C@@H]1COCc2[nH]c(=O)c3cc(F)c(F)cc3c21)c1cc2c(F)cc(F)cc2[nH]1` [Compound 157, (S)-N-(8,9-Difluoro-6-oxo-1,4,5,6-tetrahydro-2H-pyrano[3,4-c]isoquinolin-1-yl)-4,6-difluoro-1H-indole-2-carboxamide], for which the EC50 turned out to be 250 nM.

With `O=C(N[C@@H]1COCc2[nH]c(=O)c3cc(F)c(F)cc3c21)c1ccc(C(F)(F)F)c(F)c1` [Compound 158, (S)-N-(8,9-Difluoro-6-oxo-1,4,5,6-tetrahydro-2H-pyrano[3,4-c]isoquinolin-1-yl)-3-fluoro-4-(trifluoromethyl)benzamide], the EC50 worked out at 580 nM.

`O=C(N[C@@H]1COCc2[nH]c(=O)c3cc(F)c(F)cc3c21)c1ccc(Cl)c(F)c1` [Compound 159, (S)-4-chloro-N-(8,9-difluoro-6-oxo-1,4,5,6-tetrahydro-2H-pyrano[3,4-c]isoquinolin-1-yl)-3-fluorobenzamide]: the EC50 worked out at 660 nM.

For the compound `CN(C(=O)c1cc(F)c(Br)c(F)c1)[C@@H]1COCc2[nH]c(=O)c3cc(F)c(F)cc3c21` [Compound 172, 4-Bromo-N-(8,9-difluoro-6-oxo-2,4,5,6-tetrahydro-1H-pyrano[3,4-c]isoquinolin-1-yl)-3,5-difluoro-N-methylbenzamide], the EC50 stood at 10 nM.

On to `CN(C(=O)c1cc(F)c(Cl)c(F)c1)[C@@H]1COCc2[nH]c(=O)c3cc(F)c(F)cc3c21` [Compound 173, 4-Chloro-N-(8,9-difluoro-6-oxo-2,4,5,6-tetrahydro-1H-pyrano[3,4-c]isoquinolin-1-yl)-3,5-difluoro-N-methylbenzamide], for which the 50% effective concentration (EC50) was 10 nM.

As for `CN(C(=O)c1cc(F)c(C(F)F)c(F)c1)[C@@H]1COCc2[nH]c(=O)c3cc(F)c(F)cc3c21` [Compound 180, (S)-N-(8,9-Difluoro-6-oxo-1,4,5,6-tetrahydro-2H-pyrano[3,4-c]isoquinolin-1-yl)-4-(difluoromethyl)-3,5-difluoro-N-methylbenzamide], the EC50 is 160 nM.

Turning to `CN(C(=O)c1cc2cc(F)c(F)cc2[nH]1)[C@@H]1COC(O)c2[nH]c(=O)c3cc(F)c(F)cc3c21` (stereo partly drawn) [Compound 187, N-((1S)-8,9-Difluoro-4-hydroxy-6-oxo-1,4,5,6-tetrahydro-2H-pyrano[3,4-c]isoquinolin-1-yl)-5,6-difluoro-N-methyl-1H-indole-2-carboxamide], the EC50 came to 10 nM.

On to `CN(C(=O)c1cnn(C)c1)[C@@H]1COCc2[nH]c(=O)c3cc(F)c(F)cc3c21` [Compound 188, (S)-N-(8,9-Difluoro-6-oxo-1,4,5,6-tetrahydro-2H-pyrano[3,4-c]isoquinolin-1-yl)-N,1-dimethyl-1H-pyrazole-4-carboxamide], for which the EC50 stood at 18300 nM.

As to `C=C(C(=O)N(C)[C@@H]1COCc2[nH]c(=O)c3cc(F)c(F)cc3c21)c1ccccc1` [Compound 189, (S)-N-(8,9-Difluoro-6-oxo-1,4,5,6-tetrahydro-2H-pyrano[3,4-c]isoquinolin-1-yl)-N-methyl-2-phenylacrylamide], the EC50 worked out at 4400 nM.

For `CN(C(=O)c1cc2cc(F)cnc2[nH]1)[C@@H]1COCc2[nH]c(=O)c3cc(F)c(F)cc3c21` [Compound 190, (S)-N-(8,9-Difluoro-6-oxo-1,4,5,6-tetrahydro-2H-pyrano[3,4-c]isoquinolin-1-yl)-5-fluoro-N-methyl-1H-pyrrolo[2,3-b]pyridine-2-carboxamide], the EC50 was 330 nM.

As for `CN(C(=O)c1cc2cc(Cl)cnc2[nH]1)[C@@H]1COCc2[nH]c(=O)c3cc(F)c(F)cc3c21` [Compound 191, (S)-5-Chloro-N-(8,9-difluoro-6-oxo-1,4,5,6-tetrahydro-2H-pyrano[3,4-c]isoquinolin-1-yl)-N-methyl-1H-pyrrolo[2,3-b]pyridine-2-carboxamide], the EC50 is 120 nM.

On to `CN(C(=O)c1cc2cc(Br)cnc2[nH]1)[C@@H]1COCc2[nH]c(=O)c3cc(F)c(F)cc3c21` [Compound 192, (S)-5-Bromo-N-(8,9-difluoro-6-oxo-1,4,5,6-tetrahydro-2H-pyrano[3,4-c]isoquinolin-1-yl)-N-methyl-1H-pyrrolo[2,3-b]pyridine-2-carboxamide], for which the EC50 was determined as 260 nM.

`CN(C(=O)c1c[nH]c(=O)c(C(F)(F)F)c1)[C@@H]1COCc2[nH]c(=O)c3cc(F)c(F)cc3c21` [Compound 193, (S)-N-(8,9-Difluoro-6-oxo-1,4,5,6-tetrahydro-2H-pyrano[3,4-c]isoquinolin-1-yl)-N-methyl-6-oxo-5-(trifluoromethyl)-1,6-dihydropyridine-3-carboxamide]: the EC50 was 3200 nM.

In the case of `CN(C(=O)c1csc(Br)c1)[C@@H]1COCc2[nH]c(=O)c3cc(F)c(F)cc3c21` [Compound 194, (S)-5-Bromo-N-(8,9-difluoro-6-oxo-1,4,5,6-tetrahydro-2H-pyrano[3,4-c]isoquinolin-1-yl)-N-methylthiophene-3-carboxamide], the EC50 is 70 nM.

On to `CN(C(=O)C1Cc2ccccc2C1)[C@@H]1COCc2[nH]c(=O)c3cc(F)c(F)cc3c21` [Compound 195, (S)-N-(8,9-Difluoro-6-oxo-1,4,5,6-tetrahydro-2H-pyrano[3,4-c]isoquinolin-1-yl)-N-methyl-2,3-dihydro-1H-indene-2-carboxamide], for which the EC50 was found to be 150 nM.

In the case of `CN(C(=O)c1cnn(C(C)(C)C)c1)[C@@H]1COCc2[nH]c(=O)c3cc(F)c(F)cc3c21` [Compound 196, (S)-1-(tert-Butyl)-N-(8,9-difluoro-6-oxo-1,4,5,6-tetrahydro-2H-pyrano[3,4-c]isoquinolin-1-yl)-N-methyl-1H-pyrazole-4-carboxamide], the EC50 stood at 3100 nM.

`CN(C(=O)c1cnn(C(F)(F)F)c1)[C@@H]1COCc2[nH]c(=O)c3cc(F)c(F)cc3c21` [Compound 197, (S)-N-(8,9-Difluoro-6-oxo-1,4,5,6-tetrahydro-2H-pyrano[3,4-c]isoquinolin-1-yl)-N-methyl-1-(trifluoromethyl)-1H-pyrazole-4-carboxamide]: the EC50 worked out at 440 nM.

`CN(C(=O)c1cc(Br)c[nH]1)[C@@H]1COCc2[nH]c(=O)c3cc(F)c(F)cc3c21` [Compound 198, (S)-4-Bromo-N-(8,9-difluoro-6-oxo-1,4,5,6-tetrahydro-2H-pyrano[3,4-c]isoquinolin-1-yl)-N-methyl-1H-pyrrole-2-carboxamide]: the EC50 amounted to 220 nM.

Consider `CN(C(=O)c1ccc(Cl)c(=O)[nH]1)[C@@H]1COCc2[nH]c(=O)c3cc(F)c(F)cc3c21` [Compound 201, (S)-5-Chloro-N-(8,9-difluoro-6-oxo-1,4,5,6-tetrahydro-2H-pyrano[3,4-c]isoquinolin-1-yl)-N-methyl-6-oxo-1,6-dihydropyridine-2-carboxamide], for which the EC50 turned out to be 10000 nM.

As for `CN(C(=O)c1cc2cc(Cl)ncc2[nH]1)[C@@H]1COCc2[nH]c(=O)c3cc(F)c(F)cc3c21` [Compound 204, (S)-5-Chloro-N-(8,9-difluoro-6-oxo-1,4,5,6-tetrahydro-2H-pyrano[3,4-c]isoquinolin-1-yl)-N-methyl-1H-pyrrolo[2,3-c]pyridine-2-carboxamide], the EC50 was 40 nM.

Values taken from patent US20240228504A1, “SUBSTITUTED TRICYCLIC AMIDES, ANALOGUES THEREOF, AND METHODS USING SAME” (Arbutus Biopharma Corporation, priority 2020, published 2024).
